Structures can show the parent of a compound that is named as a salt. The source made the active and inactive calls. The calls are words filed in the database; no cut-off is given here. Where a SMILES comes first, the peptide text is derived from it. The star is where a group is joined. Tfa = O=C(C(F)(F)F)*
Key:
Staphylococcus aureus [1] = assay: Antibacterial activity against Staphylococcus aureus assessed as reduction in microbial growth after 24 hrs by microplate reader method; assay type: functional
Pseudomonas aeruginosa [2] = assay: Antibacterial activity against Pseudomonas aeruginosa assessed as reduction in microbial growth after 24 hrs by microplate reader method; assay type: functional
Escherichia coli [3] = assay: Antibacterial activity against Escherichia coli assessed as reduction in microbial growth after 24 hrs by microplate reader method; assay type: functional
Lipid bilayer [4] = assay: Binding affinity to bacterial inner membrane mimic POPE/POPG (3:1) LUVs assessed as increase in intensity by one-dimensional 19F NMR based analysis
Escherichia coli [5] = assay: Synergistic antibacterial activity against Escherichia coli assessed as fractional inhibitory concentration index incubated for 24 hrs in presence of Polymyxin B; assay type: functional
Staphylococcus aureus [6] = assay: Synergistic antibacterial activity against Staphylococcus aureus assessed as fractional inhibitory concentration index incubated for 24 hrs in presence of streptomycin; assay type: functional
Staphylococcus aureus [7] = assay: Antibiofilm activity against Staphylococcus aureus assessed as biofilm eradication at 2XMBEC incubated for 12 hrs by SYTO9/PI staining based microscopic analysis; assay type: functional, organism-based
Pseudomonas aeruginosa [8] = assay: Synergistic antibacterial activity against Pseudomonas aeruginosa assessed as fractional inhibitory concentration index incubated for 24 hrs in presence of Polymyxin B; assay type: functional
Escherichia coli [9] = assay: Potentiation of polymyxin B-induced antibacterial activity against Escherichia coli assessed as polymyxin B MIC incubated for 24 hrs by microplate reader method; assay type: functional
[10] = Hemolytic activity against mouse RBC at 1000 uM measured after 1 hr by microplate reader analysis; assay type: cell-based, Erythrocyte; conditions: mouse red blood cells (erythrocytes), read-out: Activity
Pseudomonas aeruginosa [11] = assay: Antibacterial activity against Pseudomonas aeruginosa assessed as reduction in microbial growth after 24 hrs in presence of polymyxin B by microplate reader method; assay type: functional
Lipid bilayer [12] = assay: Binding affinity to bacterial inner membrane mimic DOPE/DOPG (3:1) large unilamellar vesicles assessed as calcein leakage at 20 uM by fluorescence based assay
Escherichia coli [13] = assay: Antibiofilm activity against Escherichia coli assessed as biofilm eradication incubated for 24 hrs by crystal violet staining assay; assay type: functional
Pseudomonas aeruginosa [14] = assay: Potentiation of polymyxin B-induced antibacterial activity against Pseudomonas aeruginosa assessed as polymyxin B MIC incubated for 24 hrs by microplate reader method; assay type: functional
Cell membrane [15] = assay: Disruption of membrane integrity in Escherichia coli at 2 times MIC measured after 20 mins by SEM analysis
Cell membrane [16] = assay: Disruption of membrane integrity in Staphylococcus aureus at 2 times MIC measured after 20 mins by SEM analysis
Escherichia coli [17] = assay: Antibacterial activity against Escherichia coli assessed as reduction in microbial growth after 24 hrs in presence of polymyxin B by microplate reader method; assay type: functional
Escherichia coli [18] = assay: Antibiofilm activity against Escherichia coli assessed as as inhibition of biofilm formation incubated for 48 hrs by crystal violet staining assay; assay type: functional
Staphylococcus aureus [19] = assay: Antibiofilm activity against Staphylococcus aureus assessed as biofilm eradication incubated for 24 hrs by crystal violet staining assay; assay type: functional
[20] = molecular target: NAD-dependent histone deacetylase SIR2 (Saccharomyces cerevisiae S288c) (UniProt P06700); assay: Inhibition of yeast sirtuin2-mediated Ura3 transcriptional silencing at telomeric locus assessed as yeast killing at 50 uM incubated for 72 hrs in presence of FOA by absorbance based analysis
Staphylococcus aureus [21] = assay: Antibacterial activity against Staphylococcus aureus assessed as reduction in microbial growth after 24 hrs in presence of streptomycin by microplate reader method; assay type: functional
Staphylococcus aureus [22] = assay: Potentiation of streptomycin-induced antibacterial activity against Staphylococcus aureus assessed as streptomycin MIC incubated for 24 hrs by microplate reader method; assay type: functional
Escherichia coli [23] = assay: Antibiofilm activity against Escherichia coli assessed as biofilm eradication at 2XMBEC incubated for 12 hrs by SYTO9/PI staining based microscopic analysis; assay type: functional, organism-based
HeLa = assay: Cytotoxicity against human HeLa cells assessed as reduction in cell viability incubated for 48 hrs by MTT assay; assay type: cell-based
Staphylococcus aureus [24] = assay: Potentiation of streptomycin-induced antibacterial activity against Staphylococcus aureus assessed as fold change in streptomycin MIC incubated for 24 hrs by microplate reader method; assay type: functional
Staphylococcus aureus [25] = assay: Antibiofilm activity against Staphylococcus aureus assessed as inhibition of biofilm formation incubated for 48 hrs by crystal violet staining assay; assay type: functional
Lipid bilayer [26] = assay: Binding affinity to mammalian membrane mimic DOPC/40% cholesterol assessed as calcein leakage at 20 uM by fluorescence based assay; assay type: ADME
BE(2)-C = assay: Cytotoxicity against human BE(2)-C cells assessed as reduction in cell viability incubated for 48 hrs by MTT assay; assay type: cell-based
[27] = Inhibition of transcriptional machinery using Puc19-lacCONS plasmid DNA and Escherichia coli RNA polymerase-sigma70 holoenzyme at 40 uM incubated for 35 mins followed by NTP addition for 30 mins by spectrofluorometer analysis; assay type: functional; conditions: time 65.0 min
Cell membrane [28] = assay: Disruption of membrane integrity in Staphylococcus aureus at 2 times MIC by TEM analysis
Cell membrane [29] = assay: Disruption of membrane integrity in Escherichia coli assessed as cellular leakage at 2 times MIC by TEM analysis
Cell membrane [30] = assay: Disruption of membrane integrity in Escherichia coli at 2 times MIC by TEM analysis
[31] = Inhibition of transcriptional machinery using Puc19-lacCONS plasmid DNA and Escherichia coli RNA polymerase-sigma70 holoenzyme at 10 uM incubated for 35 mins followed by NTP addition for 30 mins by spectrofluorometer analysis; assay type: functional; conditions: time 65.0 min
Lipid bilayer [32] = assay: Binding affinity to bacterial inner membrane mimic DOPE/DOPG (3:1) large unilamellar vesicles assessed as calcein leakage at 2.5 uM by fluorescence based assay

Chain of NAD-dependent histone deacetylase SIR2 (Saccharomyces cerevisiae S288c) (P06700 whole entry): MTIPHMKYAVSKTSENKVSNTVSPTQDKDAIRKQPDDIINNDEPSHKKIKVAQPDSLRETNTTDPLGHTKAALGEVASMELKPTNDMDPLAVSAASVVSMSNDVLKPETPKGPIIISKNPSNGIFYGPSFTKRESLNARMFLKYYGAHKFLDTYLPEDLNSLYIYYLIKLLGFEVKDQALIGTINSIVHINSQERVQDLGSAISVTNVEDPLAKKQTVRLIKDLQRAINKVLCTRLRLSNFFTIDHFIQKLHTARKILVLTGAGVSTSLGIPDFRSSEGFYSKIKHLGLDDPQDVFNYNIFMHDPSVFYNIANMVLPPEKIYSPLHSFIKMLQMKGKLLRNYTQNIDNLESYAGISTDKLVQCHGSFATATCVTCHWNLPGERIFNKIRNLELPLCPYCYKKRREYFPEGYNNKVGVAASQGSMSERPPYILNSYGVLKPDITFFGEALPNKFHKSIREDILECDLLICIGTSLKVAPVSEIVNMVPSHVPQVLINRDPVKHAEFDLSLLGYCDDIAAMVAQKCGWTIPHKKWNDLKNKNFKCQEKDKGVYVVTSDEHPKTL

MIC (Staphylococcus aureus [1]) [µM] | MIC (Pseudomonas aeruginosa [2]) [µM] | MIC (Escherichia coli [3]) [µM] | Activity (Lipid bilayer [4]) | MIC (Escherichia coli [9]) [µM] | MIC (Pseudomonas aeruginosa [11]) [µM] | Activity (Lipid bilayer [12]) | MIC (Pseudomonas aeruginosa [14]) [µM] | Activity (Cell membrane [15]) | Activity (Cell membrane [16]) | MIC (Escherichia coli [17]) [µM] | Structure (SMILES) | fractional inhibitory concentration index (FICI) (Escherichia coli [5]) | fractional inhibitory concentration index (FICI) (Staphylococcus aureus [6]) | Activity (Staphylococcus aureus [7]) | fractional inhibitory concentration index (FICI) (Pseudomonas aeruginosa [8]) | hemolysis at 1 h, 1000 µM [10] [%] | MBEC (Escherichia coli [13]) | MBIC (Escherichia coli [18]) | MBEC (Staphylococcus aureus [19]) [µM] | inhibition [20] | further results
1.5 | > 250 | 125 | Active | 0.05 | 25 | 70% | 0.1 | inactive | inactive | 7.81 | CC(=O)N[C@@H](CCCCN)C(=O)NCC(=O)N[C@@H](CC(C)C)C(=O)N[C@@H](CCCNC(=N)N)C(=O)N[C@@H](CCCCNC(=O)C(F)(F)F)C(=O)N[C@@H](Cc1ccccc1)C(=O)NCC(=O)N[C@@H](C)C(=O)N[C@@H](CCCCNC(=O)C(F)(F)F)C(=O)N[C@@H](CCCNC(=N)N)C(=O)N[C@@H](Cc1cnc[nH]1)C(=O)N[C@@H](CCCNC(=N)N)C(=O)N[C@@H](CS)C(N)=O (Ac-KGLRK(Tfa)FGAK(Tfa)RHRC-NH2) | 0.19 | 0.3 | Active | 0.36 | < 5 | inactive | inactive | 12.5 | Active | MIC (Staphylococcus aureus [21]): 0.63 µM; MIC (Staphylococcus aureus [22]): 0.38 µM; Activity (Escherichia coli [23]): Active; IC50 (HeLa): 84.4 µM; fold change (FC) (Staphylococcus aureus [24]): 6; MBIC (Staphylococcus aureus [25]): 6.3 µM; Activity (Lipid bilayer [26]): < 20%; IC50 (BE(2)-C): 81.6 µM; inhibition [27]: Active
0.2 | 25 | 1.5 | Active | 0.1 | 6.25 | Active | 0.05 | Active | Active | 0.63 | CC(=O)N[C@@H](Cc1ccc(O)cc1)C(=O)NCC(=O)N[C@@H](CCCNC(=N)N)C(=O)N[C@@H](CCCCN)C(=O)N[C@@H](CCCCN)C(=O)N[C@@H](CCCNC(=N)N)C(=O)N[C@@H](CCCNC(=N)N)C(=O)N[C@@H](CCC(N)=O)C(=O)N[C@@H](CCCNC(=N)N)C(=O)N[C@@H](CCCNC(=N)N)C(=O)N[C@@H](CCCNC(=N)N)C(=O)NCC(=O)NCC(=O)NCC(=O)N[C@@H](CCCCN)C(=O)NCC(=O)N[C@@H](CC(C)C)C(=O)N[C@@H](CCCNC(=N)N)C(=O)N[C@@H](CCCCNC(=O)C(F)(F)F)C(=O)N[C@@H](Cc1ccccc1)C(=O)NCC(=O)N[C@@H](C)C(=O)N[C@@H](CCCCNC(=O)C(F)(F)F)C(=O)N[C@@H](CCCNC(=N)N)C(=O)N[C@@H](Cc1cnc[nH]1)C(=O)N[C@@H](CCCNC(=N)N)C(=O)N[C@@H](CS)C(N)=O (Ac-YGRKKRRQRRRGGGKGLRK(Tfa)FGAK(Tfa)RHRC-NH2) | 0.73 | 0.22 | Active | 0.3 | < 5 | 62.5 µM | 15.6 µM | 3.2 | Active | Activity (Cell membrane [28]): Active; Activity (Cell membrane [29]): Active; Activity (Cell membrane [30]): Active; inhibition [31]: 100%; Activity (Lipid bilayer [32]): 90%; MIC (Staphylococcus aureus [21]): 0.05 µM; MIC (Staphylococcus aureus [22]): 0.38 µM; Activity (Escherichia coli [23]): Active; IC50 (HeLa): 31.6 µM; fold change (FC) (Staphylococcus aureus [24]): 6; MBIC (Staphylococcus aureus [25]): 0.8 µM; Activity (Lipid bilayer [26]): < 20%; IC50 (BE(2)-C): 23.4 µM

Structure (SMILES) | MIC (Staphylococcus aureus [1]) [µM] | MIC (Pseudomonas aeruginosa [2]) [µM] | MIC (Escherichia coli [3]) [µM] | Activity (Lipid bilayer [4]) | MIC (Escherichia coli [9]) [µM] | MIC (Pseudomonas aeruginosa [11]) [µM] | Activity (Lipid bilayer [12]) | MIC (Pseudomonas aeruginosa [14]) [µM] | Activity (Cell membrane [15]) | Activity (Cell membrane [16]) | MIC (Escherichia coli [17]) [µM] | fractional inhibitory concentration index (FICI) (Escherichia coli [5]) | fractional inhibitory concentration index (FICI) (Staphylococcus aureus [6]) | Activity (Staphylococcus aureus [7]) | fractional inhibitory concentration index (FICI) (Pseudomonas aeruginosa [8]) | hemolysis at 1 h, 1000 µM [10] [%] | MBEC (Escherichia coli [13]) | MBIC (Escherichia coli [18]) | MBEC (Staphylococcus aureus [19]) [µM] | inhibition [20] | further results
CC(=O)N[C@@H](Cc1ccc(O)cc1)C(=O)NCC(=O)N[C@@H](CCCNC(=N)N)C(=O)N[C@@H](CCCCN)C(=O)N[C@@H](CCCCN)C(=O)N[C@@H](CCCNC(=N)N)C(=O)N[C@@H](CCCNC(=N)N)C(=O)N[C@@H](CCC(N)=O)C(=O)N[C@@H](CCCNC(=N)N)C(=O)N[C@@H](CCCNC(=N)N)C(=O)N[C@@H](CCCNC(=N)N)C(=O)O | 1.5 | > 100 | 50 | – | – | – | – | – | – | – | – | – | – | – | – | – | – | – | – | – | –

From ChEMBL document CHEMBL4814071, “Synthesis and antibacterial study of cell-penetrating peptide conjugated trifluoroacetyl and thioacetyl lysine modified peptides” (Eur J Med Chem, 2021)
